Read-outs that look alike come from different tables or passages of the source.
Columns and labels:
p38α MAP kinase [1] = molecular target: T1, p38α MAP kinase (Homo sapiens, UniProt Q16539); conditions: read-out: FP Assay p38α Ki; cited from earlier work
CYP2C19 = molecular target: T2, CYP2C19 (Homo sapiens, UniProt P33261); assay: CYP inhibition (fluorimetric detection) assay; assay type: in vitro ADME; conditions: recombinant human CYP2C19, read-out: (%) inhibition of CYP 2C19
T2 construct: purchased Eurofins Panlabs Inc. (contract assay)
T2 sequence (P33261 whole entry): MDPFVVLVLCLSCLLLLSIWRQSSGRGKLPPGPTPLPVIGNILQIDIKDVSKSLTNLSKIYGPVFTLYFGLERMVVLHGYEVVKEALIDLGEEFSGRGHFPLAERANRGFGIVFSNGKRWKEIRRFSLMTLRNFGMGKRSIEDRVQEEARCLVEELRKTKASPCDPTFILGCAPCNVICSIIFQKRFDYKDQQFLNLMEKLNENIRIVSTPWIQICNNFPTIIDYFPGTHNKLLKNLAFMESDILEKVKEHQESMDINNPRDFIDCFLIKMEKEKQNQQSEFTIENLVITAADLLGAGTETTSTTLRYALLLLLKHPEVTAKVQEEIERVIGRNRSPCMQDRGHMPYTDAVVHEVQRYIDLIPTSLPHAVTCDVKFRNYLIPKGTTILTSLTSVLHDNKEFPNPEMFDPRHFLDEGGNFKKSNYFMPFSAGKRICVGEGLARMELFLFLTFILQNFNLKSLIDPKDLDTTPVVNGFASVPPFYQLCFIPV
Method: (§1) CYP inhibition (fluorimetric detection) assay was performed by Eurofins Panlabs Inc. (St. Charles, MO, USA) with human recombinant CYP enzyme and the appropriate CYP substrate.

CYP2C9 = molecular target: T3, CYP2C9 (Homo sapiens, UniProt P11712); assay: CYP inhibition (fluorimetric detection) assay; assay type: in vitro ADME; conditions: recombinant human CYP2C9, read-out: (%) inhibition of CYP 2C9
T3 construct: purchased Eurofins Panlabs Inc. (contract assay)
T3 sequence (P11712 whole entry): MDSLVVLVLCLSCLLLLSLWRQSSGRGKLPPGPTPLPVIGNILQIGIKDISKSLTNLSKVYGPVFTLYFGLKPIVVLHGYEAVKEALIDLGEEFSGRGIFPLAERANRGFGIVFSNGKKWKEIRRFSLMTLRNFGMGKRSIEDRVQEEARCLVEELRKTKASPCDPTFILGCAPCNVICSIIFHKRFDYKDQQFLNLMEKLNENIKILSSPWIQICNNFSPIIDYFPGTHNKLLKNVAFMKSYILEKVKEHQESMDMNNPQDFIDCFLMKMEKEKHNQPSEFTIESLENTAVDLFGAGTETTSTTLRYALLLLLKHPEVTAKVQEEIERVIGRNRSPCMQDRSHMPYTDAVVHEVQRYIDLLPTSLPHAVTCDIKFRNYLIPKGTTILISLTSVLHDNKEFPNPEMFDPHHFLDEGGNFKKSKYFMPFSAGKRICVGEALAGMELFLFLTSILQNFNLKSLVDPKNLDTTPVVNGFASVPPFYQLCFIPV
Method: as §1

CYP2D6 = molecular target: T4, CYP2D6 (Homo sapiens, UniProt P10635); assay: CYP inhibition (fluorimetric detection) assay; assay type: in vitro ADME; conditions: recombinant human CYP2D6, read-out: (%) inhibition of CYP 2D6
T4 construct: purchased Eurofins Panlabs Inc. (contract assay)
T4 sequence (P10635 whole entry): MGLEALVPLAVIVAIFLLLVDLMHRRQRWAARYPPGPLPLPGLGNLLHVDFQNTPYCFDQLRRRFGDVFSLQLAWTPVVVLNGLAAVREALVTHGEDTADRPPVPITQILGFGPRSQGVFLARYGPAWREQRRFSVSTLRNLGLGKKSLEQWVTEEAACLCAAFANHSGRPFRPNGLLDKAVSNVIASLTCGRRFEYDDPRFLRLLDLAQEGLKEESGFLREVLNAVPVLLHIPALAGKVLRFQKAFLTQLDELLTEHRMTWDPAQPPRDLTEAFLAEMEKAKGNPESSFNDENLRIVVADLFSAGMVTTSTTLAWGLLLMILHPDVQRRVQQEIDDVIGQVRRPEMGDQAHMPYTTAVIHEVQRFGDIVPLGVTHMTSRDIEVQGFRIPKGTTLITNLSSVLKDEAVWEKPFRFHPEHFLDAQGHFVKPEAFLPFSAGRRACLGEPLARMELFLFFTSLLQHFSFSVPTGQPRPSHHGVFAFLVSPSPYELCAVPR
Method: as §1

CYP3A4 = molecular target: T5, CYP3A4 (Homo sapiens, UniProt P08684); assay: CYP inhibition (fluorimetric detection) assay; assay type: in vitro ADME; conditions: recombinant human CYP3A4, read-out: (%) inhibition of CYP 3A4
T5 construct: purchased Eurofins Panlabs Inc. (contract assay)
T5 sequence (P08684 whole entry): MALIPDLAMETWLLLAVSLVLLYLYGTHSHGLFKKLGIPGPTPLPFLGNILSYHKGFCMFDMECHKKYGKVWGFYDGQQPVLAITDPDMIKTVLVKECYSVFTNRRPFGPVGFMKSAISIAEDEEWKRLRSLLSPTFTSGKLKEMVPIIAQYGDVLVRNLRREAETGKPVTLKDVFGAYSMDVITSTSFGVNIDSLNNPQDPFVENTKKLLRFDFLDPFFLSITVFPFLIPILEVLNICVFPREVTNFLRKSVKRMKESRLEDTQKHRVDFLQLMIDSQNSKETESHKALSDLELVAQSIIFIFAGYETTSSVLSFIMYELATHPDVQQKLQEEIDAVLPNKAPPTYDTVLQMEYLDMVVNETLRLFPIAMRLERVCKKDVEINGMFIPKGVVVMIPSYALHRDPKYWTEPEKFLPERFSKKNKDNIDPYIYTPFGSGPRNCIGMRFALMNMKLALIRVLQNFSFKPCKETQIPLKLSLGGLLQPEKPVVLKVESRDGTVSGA
Method: as §1

CYP1A2 = molecular target: T6, CYP1A2 (Homo sapiens, UniProt P05177); assay: CYP inhibition (fluorimetric detection) assay; assay type: in vitro ADME; conditions: recombinant human CYP1A2, read-out: (%) inhibition of CYP 1A2
T6 construct: purchased Eurofins Panlabs Inc. (contract assay)
T6 sequence (P05177 1-516): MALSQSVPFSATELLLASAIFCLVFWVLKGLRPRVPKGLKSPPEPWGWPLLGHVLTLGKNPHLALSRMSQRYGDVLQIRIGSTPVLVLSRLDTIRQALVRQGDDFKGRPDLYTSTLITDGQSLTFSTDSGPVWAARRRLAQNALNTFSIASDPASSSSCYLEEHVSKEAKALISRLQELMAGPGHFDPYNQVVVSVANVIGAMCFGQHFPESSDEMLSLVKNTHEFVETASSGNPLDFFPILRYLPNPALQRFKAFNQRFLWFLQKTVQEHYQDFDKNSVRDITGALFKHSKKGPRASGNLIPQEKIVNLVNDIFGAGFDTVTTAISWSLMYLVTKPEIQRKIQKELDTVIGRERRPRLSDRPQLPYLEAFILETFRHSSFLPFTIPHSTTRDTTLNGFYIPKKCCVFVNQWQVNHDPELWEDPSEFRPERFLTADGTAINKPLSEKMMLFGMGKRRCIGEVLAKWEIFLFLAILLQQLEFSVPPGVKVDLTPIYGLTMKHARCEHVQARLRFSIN
Method: as §1

[2] = tested on: LPS-stimulated TNF-α release from human whole blood; conditions: cited from earlier work
[3] = HLM stability test with LC-MS metabolite screening; assay type: in vitro ADME, human; conditions: for Degradation: compound remaining, AVERAGE: HLM; for biotransformation / degradation: after 4 h of incubation with HLM; for compound present / remaining unmetabolized: after incubation time of 4 h with HLM
Method: Pooled human liver microsomes (adult male & female) were purchased from Merck (Schnelldorf, Germany). These microsomes were characterized in protein and CYP content. All incubations (final total volume 1050 µL) were made in the presence of an NADPH-regenerating system, consisting of 5 mM Glucose-6-phosphate, 5 U/mL Glucose-6-phosphate dehydrogenase and 1 mM NADP^+. The substrate (100 μM), the NADPH regenerating system and 4 mM MgCl2 × 6 H2O in 0.1 M Tris buffer (pH 7.4 at 37 °C) were preincubated for 5 min in an incubator at 37 °C and 750 rpm. The incubation mix was split into 50 μL aliquots and the reaction was started by addition of the HLM. Thereby the microsomal protein content was standardized to 1 mg/mL. To follow the course of metabolism, the reaction tubes were quenched at selected time points (0, 10, 20, 30, 60, 120, 180 and 240 min) by adding 100 μL internal standard at a concentration of 22.5 µM in MeCN. The samples were vortexed for 30 s and centrifuged (19,800 relative centrifugal force/4 °C/10 min). The supernatant was directly used for LC-MS analysis (for detailed LC-MS conditions, see supplementary materials). […] In all incubations, a limit of 1% organic solvent was not exceeded. […]
Screening of Metabolites by LC-MS Analysis
Metabolite formation was analyzed with an Alliance 2695 Separations Module (Waters GmbH, Eschborn). Sam ples maintained at 4°C, the column tem perature was set to 40°C and inj ection volume was 10 μL. The chromatographic separation for analytes 1 and ML3404 was performed on a Phenomenex Synergi Max-RP column (150 x 4.6 mm; 5 μm); LN950 and 2 on a Phenomenex Synergi Polar-RP column (150 x 4.6 mm; 5 μm) with a precolumn of the same material, respectively. An isocratic gradient of 8.5 min with 30% solvent A (90% H2O, 10% ACN, 0.1% formic acid) and 70% solvent B (ACN, 0.1% formic acid) at a flow rate of 400 μL/min was used for LN950. 1 and ML3404 were chromatographically separated by a binary gradient of 11.25 min with the equal solvents as mentioned before at a flow rate of 400 μL/min. The initial composition of 10% B was held for 20 sec, followed by a linear gradient up to 85% B in 5.8 min, holding for 30 sec, immediately changing to 10% B and reequilibrating at the end. The detection was performed on a Micromass Quattro micro triple quadrupole mass spectrometer (Waters GmbH, Eschborn) using the electrospray-ionization in the positive-mode. Correspondent to the analyte the spray voltage was set to 3.0-4.0 kV. The heated capillary o perated at 250°C and the desolvation gas flow worked at 500 L/h.

[4] = tested on: LPS-stimulated TNF-α release from human whole blood; assay: HWB assay, inhibition of LPS-stimulated TNF-α release; assay type: cell-based; conditions: n = 2
Method: (§2) 2-Alkylsulfanyl imidazoles 1 and 2 were evaluated in an enzyme-linked immunosorbent assay (ELISA) as well as in a fluorescence polarization (FP)-based assay for their ability to inhibit and bind to the p38α MAP kinase. Moreover, the ability of the novel compounds to inhibit the LPS-stimulated TNF-α release in HWB was tested. In this ex vivo assay, the efficacy of the inhibitors is determined more specifically with regard to pharmacokinetic characteristics such as cellular permeability and plasma protein binding.

[5] = rat liver microsomes; cited from earlier work
[6] = mouse liver microsomes; cited from earlier work
[7] = male and female human liver microsomes; cited from earlier work
p38α MAP kinase [8] = molecular target: T1, p38α MAP kinase; conditions: metabolite of ML3403; cited from earlier work
p38α MAP kinase [9] = molecular target: T1, p38α MAP kinase; assay: fluorescence polarization (FP)-based binding assay; conditions: for increase in binding affinity toward p38α MAP kinase relative to the 2-alkylsulfanylimidazole counterpart: 1 vs ML3403, 2 vs LN950; for Ki: n = 3
Method: as §2

[10] = tested on: CYP1A2, CYP2C9, CYP2C19, CYP2D6 and CYP3A4; assay: CYP inhibition screening, statements on the whole panel; assay type: in vitro ADME, human; conditions: human
Method: as §1

p38α MAP kinase [11] = molecular target: T1, p38α MAP kinase; assay: ELISA assay, inhibition of p38α MAP kinase; assay type: biochemical; conditions: for IC50: n = 3
Method: as §2

[12] = tested on: CYP isoforms 1A2, 2C9, 2C19, 2D6 and 3A4; assay: CYP inhibition screening, statements on the whole panel; assay type: in vitro ADME, human
Method: as §1

T1 sequence (Q16539 whole entry): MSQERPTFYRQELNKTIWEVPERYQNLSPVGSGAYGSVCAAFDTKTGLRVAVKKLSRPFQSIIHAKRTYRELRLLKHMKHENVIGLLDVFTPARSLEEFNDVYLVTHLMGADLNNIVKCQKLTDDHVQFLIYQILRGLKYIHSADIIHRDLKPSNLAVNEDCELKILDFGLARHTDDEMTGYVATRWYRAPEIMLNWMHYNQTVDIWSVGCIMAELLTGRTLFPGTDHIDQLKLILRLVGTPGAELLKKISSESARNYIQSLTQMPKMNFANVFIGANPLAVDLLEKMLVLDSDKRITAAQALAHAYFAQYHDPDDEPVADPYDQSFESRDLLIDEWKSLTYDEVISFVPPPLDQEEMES

Row | inhibition at 10 µM (CYP2C19) [%] | inhibition at 10 µM (CYP2C9) [%] | inhibition at 10 µM (CYP2D6) [%] | inhibition at 10 µM (CYP3A4) [%] | inhibition at 10 µM (CYP1A2) [%] | Degradation: compound remaining, AVERAGE ([3]; 0 min) [%] | Degradation: compound remaining, AVERAGE ([3]; 10 min) [%] | Degradation: compound remaining, AVERAGE ([3]; 20 min) [%] | Degradation: compound remaining, AVERAGE ([3]; 30 min) [%] | Degradation: compound remaining, AVERAGE ([3]; 60 min) [%] | Degradation: compound remaining, AVERAGE ([3]; 120 min) [%] | Degradation: compound remaining, AVERAGE ([3]; 180 min) [%] | Degradation: compound remaining, AVERAGE ([3]; 240 min) [%] | biotransformation / degradation [3] [%] | IC50 [4] [nM] | compound present / remaining unmetabolized [3] | increase in binding affinity toward p38α MAP kinase relative to the 2-alkylsulfanylimidazole counterpart (p38α MAP kinase [9]) [fold] | Ki (p38α MAP kinase [9]) [nM] | inhibition at 10 µM [10] [%] | IC50 (p38α MAP kinase [11]) [nM] | Structure (SMILES) | further results
1 | 63 | 91.5 | 41.5 | 61 | 28 | 100.00 | 86.86 | 77.42 | 61.96 | 51.99 | 37.23 | 32.10 | 28.49 | > 70 |  |  |  |  |  |  | CC(C)C(C)Nc1cc(-c2nc(SCCO)[nH]c2-c2ccc(F)cc2)ccn1 (stereo not shown) [LN950, 2-((5-(4-fluorophenyl)-4-(2-((3-methylbutan-2-yl)amino)pyridin-4-yl)-1H-imidazol-2-yl)thio)ethan-1-ol, reference compound] | Ki (p38α MAP kinase [1]): 4 ± 1 nM; IC50 ([2]; LPS-stimulated human whole blood, read-out: HWB Assay TNF-α IC50): 37 ± 4 nM
2 |  |  |  |  |  | 100.00 | 80.59 | 68.97 | 57.93 | 42.80 | 31.72 | 24.06 | 16.25 |  | 2980 ± 874 | less than 20% |  |  |  |  | CSc1nc(-c2ccnc(NC(C)c3ccccc3)c2)c(-c2ccc(F)cc2)[nH]1 (stereo not shown) [ML3403, 4-(5-(4-fluorophenyl)-2-(methylthio)-1H-imidazol-4-yl)-N-(1-phenylethyl)pyridin-2-amine, reference compound] | IC50 ([2]; printed in Figure 1, known inhibitors, read-out: IC50 (TNF-α)): 2700 nM; in vitro half-life [5]: 11.4 min; half-life at 100 µM ([3]; both sexes, human, pooled human liver microsomes, pH 7.4, pooled HLM, this study, read-out: in vitro half-life (converted)): 51.6 min; in vitro half-life [6]: 5.9 min; in vitro half-life [7]: 32.7 min
3 |  |  |  |  |  |  |  |  |  |  |  |  |  |  |  |  |  |  |  |  | CC(Nc1cc(-c2nc([S+](C)[O-])[nH]c2-c2ccc(F)cc2)ccn1)c1ccccc1 (stereo not shown) [ML3603] | activity on p38α MAP kinase (p38α MAP kinase [8]): active
4 | 71 | 85.1 | 90.2 | 97.6 | 85.6 | 100.00 | 92.72 | 89.75 | 87.96 | 86.27 | 83.65 | 80.90 | 79.75 | 20 | 2539 ± 20 | up to 80% | 4 | 11 ± 3 | > 70 | 25 ± 2 | CCc1nc(-c2ccc(F)cc2)c(-c2ccnc(NC(C)c3ccccc3)c2)[nH]1 (stereo not shown) [compound 1, 4-(2-Ethyl-4-(4-fluorophenyl)-1H-imidazol-5-yl)-N-(1-phenylethyl)pyridin-2-amine] | 
5 | 83.6 | 61.9 | 78.8 | 92.1 | 69.4 | 100.00 | 97.15 | 93.57 | 91.84 | 91.99 | 91.57 | 90.42 | 89.73 | 10 | 32 ± 1 |  | 4 | 1 ± 0.2 | > 60 | 11 ± 5 | CC(C)C(C)Nc1cc(-c2[nH]c(CCCO)nc2-c2ccc(F)cc2)ccn1 (stereo not shown) [compound 2, 3-(4-(4-Fluorophenyl)-5-(2-((3-methylbutan-2-yl)amino)pyridin-4-yl)-1H-imidazol-2-yl)propan-1-ol] | CYP test concentration of 10 µM relative to the IC50 value in the kinase activity assay [12]: ~1000 fold; more active than reference compound ML3403 (p38α MAP kinase [11]; p38α MAP kinase): 3.6 fold
